Source: US8993566B2, “Quinoline compound composing 1,2,4-triazine-dione and use thereof” (Wuhan Shengyun Biopharma Co., Ltd., priority 2012, dated 2015)
≈ marks a conversion by molar mass, not a printed value.

What was measured:
[1] = system: human nonsmall-cell lung cancer cell H460; assay: In vitro anti-tumor cell activity (MTT), H460; format: cell-based; conditions: H460 cells, MTT, 72 h, Bliss method; for IC50: Homo sapiens, NCI-H460, read-out: H460 IC50
Procedure: (§1) The digested cell solution was poured into a centrifuge tube, to which a culture media was added to stop the digestion. The centrifuge tube was centrifuged at 800 r/min for 10 min, the supernatant was removed gently and then 5 mL of the culture media was added. The cells were pipetted and mixed homogeneously. 10 μL cell suspension was taken into a cell counting plate for counting, wherein the cell concentration was adjusted to 10^4 cells/well. To each well of a 96-well plate, except for A1 well as blank control, was added 100 μL of the cell suspension. The 96-well plate was placed in an incubator and cultivated for 24 h. […] The 96-well plate was placed in an incubator and cultivated for 72 h. (3) The culture media containing the compounds in the 96-well plate was removed, and the cells were washed with phosphate buffered solution (PBS) twice. To each well was added 100 μL MTT (tetrazole) (0.5 mg/mL), after placing the plate in an incubator to incubate for 4 h, the MTT solution was removed and 100 μL dimethyl sulfoxide was added. The reaction product of survival cells with MTT, i.e. formazan, was dissolved completely by oscillation on a magnetic oscillator, and then placed into a microplate reader to measure the results, and the IC50 values of compounds could be deduced by Bliss method.

[2] = system: human colon cancer cell HT-29; assay: In vitro anti-tumor cell activity (MTT), HT-29; format: cell-based; conditions: HT-29 cells, MTT, 72 h, Bliss method; for IC50: Homo sapiens, read-out: HT-29 IC50
Procedure: as §1

[3] = system: human gastric cancer cell MKN-45; assay: In vitro anti-tumor cell activity (MTT), MKN-45; format: cell-based; conditions: MKN-45 cells, MTT, 72 h, Bliss method; for IC50: Homo sapiens, read-out: MKN-45 IC50
Procedure: as §1

[4] = system: human hepatoma carcinoma cell line SMMC-7721; assay: In vitro anti-tumor cell activity (MTT), SMMC-7721; format: cell-based; conditions: SMMC-7721 cells, MTT, 72 h, Bliss method; for IC50: Homo sapiens, read-out: SMMC-7721 IC50
Procedure: as §1

[5] = target: T1, c-Met kinase (His-tagged recombinant human Met (amino acids 974-end)) (Homo sapiens, UniProt P08581); assay: c-Met Enzyme Activity Inhibition Assay (ELISA); format: biochemical; conditions: 50 pM c-Met, 5 μM ATP, room temperature 20 min; for IC50: read-out: IC50 for inhibiting c-Met kinase (converted)
T1 construct: His-tagged recombinant human Met (amino acids 974-end); His
T1 sequence (P08581 956-1390): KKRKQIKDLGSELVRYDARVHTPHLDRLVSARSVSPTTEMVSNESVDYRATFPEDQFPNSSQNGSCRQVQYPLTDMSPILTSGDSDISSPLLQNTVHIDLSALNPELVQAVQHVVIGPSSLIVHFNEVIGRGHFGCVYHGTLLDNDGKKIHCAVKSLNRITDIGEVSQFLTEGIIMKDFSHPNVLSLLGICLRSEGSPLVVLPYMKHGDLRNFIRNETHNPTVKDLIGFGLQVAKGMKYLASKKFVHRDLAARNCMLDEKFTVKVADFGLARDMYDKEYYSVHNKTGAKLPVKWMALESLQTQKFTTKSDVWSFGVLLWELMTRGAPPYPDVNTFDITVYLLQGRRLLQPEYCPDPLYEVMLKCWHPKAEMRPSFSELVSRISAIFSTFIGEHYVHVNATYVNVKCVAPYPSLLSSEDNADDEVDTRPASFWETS
Procedure: c-Met Enzyme Activity Inhibition Assay
The assay for the determination of c-Met kinase activity is based on an enzyme linked immunosorbant assay (ELISA). A compound of Formula I, 50 pM c-Met (His-tagged recombinant human Met (amino acids 974-end), expressed by baculovirus), and 5 μM ATP in an assay buffer (25 mM MOPS, pH 7.4, 5 mM MgCl2, […], 100 μM sodium orthovanadate, 0.01% Triton X-100, 1 mM DTT, final DMSO concentration 1% (v/v)) were incubated on a plate coated with 0.25 mg/mL POT at room temperature for 20 min. The reaction mixture was removed by washing and the phosphorylated polymer substrate was detected with 0.2 μg/mL phosphotyrosine specific monoclonal antibody (PY20) conjugated to horseradish peroxidase (HRP). After the addition of 1M phosphoric acid to stop the development, the chromogenic substrate (TMB) color was quantitated by spectrophotometry at 450 nm.

| Molecule | H460 IC50 [1] [mg/L] | HT-29 IC50 [2] [mg/L] | MKN-45 IC50 [3] [mg/L] | SMMC-7721 IC50 [4] [mg/L] | IC50 for inhibiting c-Met kinase [5] [mg/L] | IC50 [1] [mg/L] | IC50 [2] [mg/L] | IC50 [3] [mg/L] | IC50 [4] [mg/L] | IC50 [5] [µM] |
| --- | --- | --- | --- | --- | --- | --- | --- | --- | --- | --- |
| COc1cc2c(Oc3ccc(NC(=O)c4nn(-c5ccc(F)c(F)c5)c(=O)n(C)c4=O)cc3F)ccnc2cc1OCCCN1CCOCC1 [Example 18, N-[3-fluoro-4-[6-methoxy-7-[3-(4-morpholinyl)propyloxy]quinolin-9-oxy]phenyl]-2-(3,4-difluorophenyl)-4-methyl-3,5-dioxo-2,3,4,5-tetrahydro-1,2,4-triazine-6-carboxamide] | 0.57 | 0.3 | 0.0008 | 0.45 | 0.32 |  |  |  |  |  |
| COc1cc2c(Oc3ccc(NC(=O)c4nn(-c5ccc(F)c(F)c5)c(=O)n(C)c4=O)cc3F)ccnc2cc1OCCCN1CCC(C)CC1 [Example 19, N-[3-fluoro-4-[6-methoxy-7-[3-(4-methylpiperidin-1-yl)propyloxy]quinolin-4-oxy]phenyl]-2-(3,4-difluorophenyl)-4-methyl-3,5-dioxo-2,3,4,5-tetrahydro-1,2,4-triazine-6-carboxamide] |  |  |  |  |  | 1.1 (≈ 1.56 µM) | 0.24 (≈ 0.341 µM) | 0.23 (≈ 0.326 µM) | 0.74 (≈ 1.05 µM) | 0.766 |
| COc1cc2c(Oc3ccc(NC(=O)c4nn(-c5ccc(F)c(F)c5)c(=O)n(C)c4=O)cc3F)ccnc2cc1OCCCN1CCN(C)CC1 [Example 20, N-[3-fluoro-4-[6-methoxy-7-[3-(4-methyl-1-piperazinyl)propyloxy]quinolin-4-oxy]phenyl]-2-(3,4-difluorophenyl)-4-methyl-3,5-dioxo-2,3,4,5-tetrahydro-1,2,4-triazine-6-carboxamide] |  |  |  |  |  | 0.28 (≈ 0.397 µM) | 0.14 (≈ 0.198 µM) | 0.009 (≈ 0.0128 µM) | 0.11 (≈ 0.156 µM) | 0.241 |
| COc1cc2c(Oc3ccc(NC(=O)c4nn(-c5ccc(Cl)cc5)c(=O)n(C)c4=O)cc3F)ccnc2cc1OCCCN1CCCCC1 [Example 26, N-[3-fluoro-4-[6-methoxy-7-[3-(1-piperidinyl)propyloxy]quinolin-4-oxy]phenyl]-2-(4-chlorophenyl)-4-methyl-3,5-dioxa-2,3,4,5-tetrahydro-1,2,4-triazine-6-carboxamide;] | 0.15 | 0.08 | 0.011 | 0.33 | 0.71 |  |  |  |  |  |
| COc1cc2c(Oc3ccc(NC(=O)c4nn(-c5ccc(Cl)cc5)c(=O)n(C)c4=O)cc3F)ccnc2cc1OCCCN1CCOCC1 [Example 27, N-[3-fluoro-4-[6-methoxy-7-[3-(4-morpholinyl)propyloxy]quinolin-4-oxy]phenyl]-2-(4-chlorophenyl)-4-methyl-3,5-dioxo-2,3,4,5-tetrahydro-1,2,4-triazine-6-carboxamide] |  |  |  |  |  | 0.23 (≈ 0.333 µM) | 0.18 (≈ 0.26 µM) | 0.0053 (≈ 0.00767 µM) | 0.58 (≈ 0.839 µM) | 0.0593 |
| C=CCn1c(=O)c(C(=O)Nc2ccc(Oc3ccnc4cc(OCCCN5CCCC5)c(OC)cc34)c(F)c2)nn(-c2ccc(Cl)cc2)c1=O [Example 38] | 1.4 | 0.54 | 0.62 | 1.8 | 2.76 |  |  |  |  |  |
| C=CCn1c(=O)c(C(=O)Nc2ccc(Oc3ccnc4cc(OCCCN5CCOCC5)c(OC)cc34)c(F)c2)nn(-c2ccc(Br)cc2)c1=O [Example 39] | 1.4 | 0.83 | 0.19 | 2.1 | 1.8 |  |  |  |  |  |
| N-[3-fluoro-4-[6-methoxy-7-(3-(4-methyl-1-piperazinyl)propyloxy)quinolin-4-oxy]phenyl]-2-(3-trifluoromethylphenyl)-4-methyl-3,5-dicarbamoyl-2,3,4,5-tetrahydro-1,2,4-triazine-6-carboxamide [Example 25] | 0.52 | 0.05 | 0.014 | 0.07 | 1.01 |  |  |  |  |  |
| N-[3-fluoro-4-[6-methoxy-7-[3-(1-piperidinyl)propyloxy]quinolin-4-oxy]phenyl]-2-(3-trifluoromethylphenyl)-4-methyl-3,5-dicarbonyl-2,3,4,5-tetrahydro-1,2,4-triazine-6-carboxamide [Example 22] | 0.26 | 0.12 | 0.006 | 0.18 | 0.57 |  |  |  |  |  |
| N-[3-fluoro-4-[6-methoxy-7-[3-(1-piperidinyl)propyloxy]quinolin-4-oxy]phenyl]-2-phenyl-4-methyl-3,5-dioxo-2,3,4,5-tetrahydro-1,2,4-triazine-6-carboxamide [Example 2] | 0.072 | 0.18 | 0.032 | 0.20 | 0.12 |  |  |  |  |  |
| N-[3-fluoro-4-[6-methoxy-7-[3-(1-piperidinyl)propyloxy]quinolin]-4-oxy]phenyl]-2-(2,4-difluorophenyl)-4-benzyl-3,5-dicarbonyl-2,3,4,5-tetrahydro-1,2,4-triazine-6-carboxamide [Example 44] | 0.99 | 0.57 | 0.13 | 2.5 | 6.1 |  |  |  |  |  |
| N-[3-fluoro-4-[6-methoxy-7-[3-(1-piperidinyl)propyloxy]quinolin]-4-oxy]phenyl]-2-(2-fluorophenyl)-4-allyl-3,5-dicarbonyl-2,3,4,5-tetrahydro-1,2,4-triazine-6-carboxamide [Example 40] | 1.0 | 0.26 | 0.05 | 3.1 | 5.1 |  |  |  |  |  |
| N-[3-fluoro-4-[6-methoxy-7-[3-(1-pyrrolidyl)propyloxy]quinolin-4-oxy]phenyl]-2-(3-trifluoromethylphenyl)-4-methyl-3,5-dicarbonyl-2,3,4,5-tetrahydro-1,2,4-triazine-6-carboxamide [Example 21] | 0.24 | 0.13 | 0.0002 | 0.32 | 0.13 |  |  |  |  |  |
| N-[3-fluoro-4-[6-methoxy-7-[3-(1-pyrrolidyl)propyloxy]quinolin-4-oxy]phenyl]-2-(4-methoxyphenyl)-4-methyl-3,5-dicarbonyl-2,3,4,5-tetrahydro-1,2,4-triazine-6-carboxamide [Example 11] | 2.1 | 1.4 | 3.3 | 2.5 | 0.47 |  |  |  |  |  |
| N-[3-fluoro-4-[6-methoxy-7-[3-(1-pyrrolidyl)propyloxy]quinolin]-4-oxy]phenyl]-2-(4-fluorophenyl)-4-allyl-3,5-dicarbonyl-2,3,4,5-tetrahydro-1,2,4-triazine-6-carboxamide [Example 42] | 1.1 | 0.77 | 0.11 | 0.92 | 1.63 |  |  |  |  |  |
| N-[3-fluoro-4-[6-methoxy-7-[3-(4-methyl-1-piperazinyl)propyloxy]quinolin]-4-oxy]phenyl]-2-(2-fluorophenyl)-4-allyl-3,5-dicarbonyl-2,3,4,5-tetrahydro-1,2,4-triazine-6-carboxamide [Example 41] | 0.8 | 1.1 | 0.06 | 1.4 | 2.7 |  |  |  |  |  |
